hOX2R_Ipone max %act and EC50 data for eleven molecules are collected here from patent publication US12686690B2, “Macrocyclic urea orexin receptor agonists” (Merck Sharp & Dohme LLC, priority 2020, dated 2026).

This test has as its target T1, hOX2R (Homo sapiens, UniProt O43614).
T1 construct: expressed in transfected cells; host or cells: CHO cells (G418 selection)
T1 sequence (O43614 1-444): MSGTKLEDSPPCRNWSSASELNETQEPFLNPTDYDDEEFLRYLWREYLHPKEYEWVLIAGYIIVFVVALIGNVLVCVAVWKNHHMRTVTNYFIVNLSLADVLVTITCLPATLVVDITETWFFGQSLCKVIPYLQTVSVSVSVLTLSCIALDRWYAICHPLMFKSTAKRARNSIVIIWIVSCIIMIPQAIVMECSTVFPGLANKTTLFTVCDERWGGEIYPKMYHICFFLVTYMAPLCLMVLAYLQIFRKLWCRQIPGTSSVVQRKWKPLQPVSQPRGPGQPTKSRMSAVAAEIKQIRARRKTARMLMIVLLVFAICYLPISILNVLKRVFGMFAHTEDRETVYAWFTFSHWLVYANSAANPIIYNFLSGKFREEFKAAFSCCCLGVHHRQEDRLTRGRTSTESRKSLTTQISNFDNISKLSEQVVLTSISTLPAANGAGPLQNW
The test is described as follows: hOX2R IPone assay (orexin receptor agonism). Type of test: cell-based. The conditions noted are these: IPone readout; for hOX2R_Ipone max %act: maximal activation; for EC50: orexin receptor agonist, read-out: hOX2R_IPone EC50.

SMILES strings stand for the structures.

As for `CCN1C(=O)N[C@@H](CCC(F)(F)F)COCCCOc2nc(cn3ncnc23)-c2cc(ncc2OC)[C@H]1C` [Example 174, (3R,7S,E)-4-ethyl-25-methoxy-3-methyl-7-(3,3,3-trifluoropropyl)-9,13-dioxa-4,6-diaza-1(6,8)-[1,2,4]triazolo[1,5-a]pyrazina-2(4,2)-pyridinacyclotridecaphan-5-one], the hOX2R_Ipone max %act was found to be 103.8% and the EC50 came to 3.08 nM.
`CCN1C(=O)N[C@@H](C(F)(F)F)CCCCOc2nc(cn3ccnc23)-c2cc(ncc2OC)C1C(F)(F)F` (single isomer, unassigned) [Example 39A]: the hOX2R_Ipone max %act was 97.7% and the EC50 came out at 60.5 nM.
The like results for `CCN1C(=O)N[C@@H](CCC(F)(F)F)CCCCCOc2nc(cn3ccnc23)-c2nc(ncc2OC)[C@H]1C` [Example 117B, (12R,16R)-13-ethyl-8-methoxy-12-methyl-16-(3,3,3-trifluoropropyl)-12,13,16,17,18,19,20,21-octahydro-6,23:11,7-di(azeno)imidazo[2,1-c][1,4,10,13,15]oxatetraazacyclohenicosin-14(15H)-one] were, in that order, 101.9% and 1.5 nM.
As for `CCN1C(=O)NC2CN(CCCOc3nc(cn4ccnc34)-c3cc(ncc3OC)[C@H]1C)CC2C(F)(F)F` (single isomer, unassigned) [Example 212], the hOX2R_Ipone max %act is recorded as 99.48% and the concentration giving a half-maximal response (EC50) was found to be 2.79 nM.
The corresponding values for `CCN1C(=O)NCC(C(F)(F)F)N(C)CCOc2nc(cn3ccnc23)-c2cccc(c2)[C@H]1C` (single isomer, unassigned) [Example 25B] are 97.81% and 173 nM.
Consider `CCN1CCCOc2nc(cn3ccnc23)-c2cccc(c2)[C@@H](C)N(CC)C(=O)NCC1` [Example 15, (12R)-13,18-diethyl-12-methyl-12,13,16, 17,18,19,20,21-octahydro-6,23-(azeno)-11,7-(metheno) imidazo[2,1-c][1,4,13,15,18]oxa-tetraazacyclo-henicosin-14(15H)-one], for which the hOX2R_Ipone max %act is reported as 96.2% and the EC50 was determined as 1180 nM.
The like results for `CCN1C(=O)NCC(C(F)(F)F)N(C)CCCOc2nc(cn3ccnc23)-c2cccc(c2)C1C` [Example 26B, (3R,E)-4-ethyl-3,9-dimethyl-8-(trifluoromethyl)-13-oxa-4,6,9-triaza-1(6,8)-imidazo[1,2-a]pyrazina-2(1,3)-benzenacyclotridecaphan-5-one] were, in that order, 98.8% and 12 nM.
The like results for `CCN1C(=O)NC(CCC(F)(F)F)CCCCCOc2nc(cn3ccnc23)-c2cc(ncc2Cl)[C@H]1C` (stereo partly drawn) [Example 198, (3R,E)-25-chloro-4-ethyl-3-methyl-7-(3,3,3-trifluoropropyl)-13-oxa-4,6-diaza-1(6,8)-imidazo[1,2-a]pyrazina-2(4,2)-pyridinacyclotri-decaphan-5-one] were, in that order, 103.1% and 0.58 nM.
The like results for `CCN1C(=O)N[C@@H](CCC(F)(F)F)CCCCCOc2nc(nn3c(C)cnc23)-c2cc(ncc2OC)[C@H]1C` [Example 124, (3R,7R,E)-4-ethyl-25-methoxy-17,3-dimethyl-7-(3,3,3-trifluoropropyl)-13-oxa-4,6-diaza-1(2,4)-imidazo[2,1-f][1,2,4]triazina-2(4,2)-pyridinacyclotridecaphan-5-one] were, in that order, 97.96% and 3.99 nM.
For `CCN1C(=O)NC(CCC(F)(F)F)C(C)CCCOc2nc(cn3ccnc23)-c2cccc(c2)[C@H]1C` (single isomer, unassigned) [Example 42D], the hOX2R_Ipone max %act was 98.8% and the EC50 is 3.6 nM.
Consider `CCN1C(=O)NC(C2CCOC2)CCCCCOc2nc(cn3ccnc23)-c2cc(ncc2OC)[C@H]1C` (stereo partly drawn) [Example 189, (3R,E)-4-ethyl-25-methoxy-3-methyl-7-(tetrahydrofuran-3-yl)-13-oxa-4,6-diaza-1(6,8)-imidazo[1,2-a]pyrazina-2(4,2)-pyridinacyclotridecaphan-5-one], for which the hOX2R_Ipone max %act worked out at 99.85% and the EC50 amounted to 0.69 nM.

As usually defined, the EC50 is the concentration needed to bring the measured effect to its halfway point.
